Columns and labels:
[1] = target: T1, UDP-galactopyranose mutase (Mycobacterium tuberculosis, UniProt P9WIQ1); test: Inhibition of Mycobacterium tuberculosis UGM expressed in Escherichia coli BL21(DE3) assessed as dissociation constant by fluorescence polarization assay
[2] = target: UDP-galactopyranose mutase (Mycobacterium tuberculosis) (UniProt P9WIQ1); test: Inhibition of Mycobacterium tuberculosis UGM expressed in Escherichia coli BL21(DE3) assessed as formation of UDP-galactopyranose at 500 uM preincubated for 5 min followed by substrate addition and measured after 1 to 3 mins using UDP-galactofuranose as substrate by HPLC analysis relative to control; conditions: time 6-8 min
[3] = target: UDP-galactopyranose mutase (Mycobacterium tuberculosis) (UniProt P9WIQ1); test: Inhibition of Mycobacterium tuberculosis UGM expressed in Escherichia coli BL21(DE3) at 500 uM by Fluorescence polarization assay relative to control
[4] = target: UDP-galactopyranose mutase (Klebsiella pneumoniae) (UniProt Q48485); test: Inhibition of Klebsiella pneumoniae UGM expressed in Escherichia coli BL21(DE3) at 500 uM by Fluorescence polarization assay relative to control
[5] = target: UDP-galactopyranose mutase (Klebsiella pneumoniae, UniProt Q48485); test: Inhibition of Klebsiella pneumoniae UGM expressed in Escherichia coli BL21(DE3) assessed as dissociation constant by fluorescence polarization assay
[6] = target: T1, UDP-galactopyranose mutase; test: Inhibition of Mycobacterium tuberculosis UGM expressed in Escherichia coli BL21(DE3) assessed as dissociation constant by SPR analysis

Chain of UDP-galactopyranose mutase (Mycobacterium tuberculosis) (P9WIQ1 whole entry, looked up): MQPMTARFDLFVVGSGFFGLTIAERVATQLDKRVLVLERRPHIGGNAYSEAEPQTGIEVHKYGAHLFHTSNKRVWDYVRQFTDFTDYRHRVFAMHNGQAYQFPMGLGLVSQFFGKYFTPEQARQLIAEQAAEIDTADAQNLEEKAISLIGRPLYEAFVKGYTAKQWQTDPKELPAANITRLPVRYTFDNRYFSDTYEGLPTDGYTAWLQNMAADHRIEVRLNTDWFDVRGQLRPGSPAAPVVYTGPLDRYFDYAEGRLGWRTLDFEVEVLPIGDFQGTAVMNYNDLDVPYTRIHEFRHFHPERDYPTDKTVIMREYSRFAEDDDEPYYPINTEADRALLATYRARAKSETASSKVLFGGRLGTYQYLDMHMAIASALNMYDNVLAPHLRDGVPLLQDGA
T1 sequence (P9WIQ1 whole entry): as the sequence (P9WIQ1 whole entry, looked up) above
Chain of UDP-galactopyranose mutase (Klebsiella pneumoniae) (Q48485 whole entry): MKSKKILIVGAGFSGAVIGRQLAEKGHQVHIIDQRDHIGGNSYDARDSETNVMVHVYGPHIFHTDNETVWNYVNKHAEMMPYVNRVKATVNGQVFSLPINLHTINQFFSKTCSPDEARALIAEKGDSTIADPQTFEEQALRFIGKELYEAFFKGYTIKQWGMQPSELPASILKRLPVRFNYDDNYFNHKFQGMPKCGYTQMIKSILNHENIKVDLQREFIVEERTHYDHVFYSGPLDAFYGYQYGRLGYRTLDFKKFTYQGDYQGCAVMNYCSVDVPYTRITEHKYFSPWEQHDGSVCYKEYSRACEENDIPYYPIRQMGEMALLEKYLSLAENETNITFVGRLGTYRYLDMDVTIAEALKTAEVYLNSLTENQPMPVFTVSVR
Chain of UDP-galactopyranose mutase (Klebsiella pneumoniae, UniProt Q48485) (Q48485 whole entry): as above

SMILES	Kd [1]	inhibition [2]	inhibition [3]	inhibition [4]	Kd [5]	Kd [6]
O=C(/C=C/c1ccccc1)N[C@@H](Cc1ccc(I)cc1)C(=O)O	197 µM	54.6%	77%	60%	17 µM	–
O=C(/C=C/c1ccc(O)c(O)c1)O[C@H](Cc1ccc(O)c(O)c1)C(=O)O [ROSMARINIC ACID]	653 µM	–	48%	46%	69 µM	–
O=C(/C=C/c1ccc(O)c(O)c1)N[C@@H](Cc1ccc(O)cc1)C(=O)O	–	–	18%	–	–	–
O=C(/C=C/c1ccccc1)N[C@@H](Cc1ccc(Cl)cc1)C(=O)O	358 µM	63.3%	49%	41%	43 µM	–
O=c1ccn([C@@H]2O[C@H](COP(=O)(O)OP(=O)(O)O)[C@@H](O)[C@H]2O)c(=O)[nH]1 [URIDINE_DIPHOSPHATE]	35 µM	47.6%	86%	63%	54 µM	–
O=C(/C=C/c1ccccc1)N[C@@H](Cc1ccc(O)cc1)C(=O)O	–	–	29%	–	–	–
O=C(/C=C/c1ccccc1)N[C@@H](Cc1ccc(Br)cc1)C(=O)O	63 µM	87%	82%	59%	58 µM	105 µM
COc1cc(/C=C/C(=O)N[C@@H](Cc2ccc(O)c(O)c2)C(=O)O)ccc1O	–	–	19%	–	–	–
O=C(/C=C/c1ccccc1)N[C@@H](Cc1ccc([N+](=O)[O-])cc1)C(=O)O	401 µM	35.2%	62%	59%	231 µM	–
O=C(/C=C/c1ccccc1)N[C@@H](Cc1ccccc1)C(=O)O	> 1000 µM	–	45%	59%	> 1000 µM	–
O=C(/C=C/c1ccccc1)N[C@@H](Cc1ccc(F)cc1)C(=O)O	948 µM	–	46%	58%	156 µM	–

From ChEMBL document CHEMBL5113462, “Synthesis and evaluation of inhibitors of Mycobacterium tuberculosis UGM using bioisosteric replacement” (Bioorg Med Chem, 2022)
